Earlier results as cited in patent US20200367500A1, “MICROCAPSULES WITH BIOCIDES FOR THEIR INCORPORATION INTO REPELLENT AND/OR INSECTICIDE COATINGS” (priority 2019, published 2020).
Entries after “also recorded” stand apart in the source; their conditions may differ. Like-named read-outs stand apart in the source and are kept apart here.

Conditions: for Decomposition time (Mean life): aqueous medium; for Stability in aqueous medium, in words: pH as stated in the value

SMILES	Stability in aqueous medium, in words	Decomposition time (Mean life) (pH 9)	also measured
CCOP(=S)(OCC)Oc1nc(Cl)c(Cl)cc1Cl [Chlorpyrifos]	Stable in neutral and slightly	–	Decomposition time (Mean life) (pH 10): 7 days
CCN(CC)c1nc(C)cc(OP(=S)(OC)OC)n1 [Pirimiphos-methyl]	–	–	Decomposition time (Mean life) (pH 5): 7 days; Decomposition time (Mean life) (pH 8): 5 days
CC1(C)[C@H](C(=O)O[C@H](C#N)c2cccc(Oc3ccccc3)c2)[C@@H]1C=C(Br)Br [Deltamethrin]	more stable in medium acid solutions	–	Decomposition time (Mean life) (pH 7): 0.33 days
CCOC(=O)CC(SP(=S)(OC)OC)C(=O)OCC (centres unmarked) [Malathion]	Quickly hydrolyzed at pH over 7. The optimal pH	–	–
CC(COc1ccc(Oc2ccccc2)cc1)Oc1ccccn1 (centres unmarked) [Pyriproxifen]	Stable in pH between 4 and 9.	–	–
O=C(NC(=O)c1c(F)cccc1F)Nc1ccc(Cl)cc1 [Diflubenzuron]	Stable in a pH range from 5 to 7; also recorded: Hydrolyzed at pH 9	–	–
CC1(C)C(C=C(Cl)Cl)C1C(=O)OC(C#N)c1cccc(Oc2ccccc2)c1 (centres unmarked) [Cypermethrin]	–	7 days	–
CCOP(=S)(OCC)Oc1cc(C)nc(C(C)C)n1 [Diazinon]	–	136 days	Decomposition time (Mean life) (pH 5): 31 days; Decomposition time (Mean life) (pH 7.5): 185 days
CC1(C)C(C=C(Cl)Cl)C1C(=O)OCc1cccc(Oc2ccccc2)c1 (centres unmarked) [Permethrin]	Stable at pH between 5 and 6.	–	–
C=CCC1=C(C)C(OC(=O)C2C(C=C(C)C)C2(C)C)CC1=O [D-allethrin]	Stable at pH 5 after 31 days	(4.3 days)	Decomposition time (Mean life) (pH 7): 500 days
